From PubChem BioAssay AID328 (DTP/NCI, 2004)
Where “and” joins values, the source holds several entries; their conditions need not be identical. Equal entries are not always repeated. Inconclusive results and toxic doses are left out.

System: BDF1 mice, P388 leukemia ip, median survival T/C
Experiment: NCI In Vivo Anticancer Drug Screen. Data for tumor model P388 Leukemia (intraperitoneal) in B6D2F1 (BDF1) mice
Details: endpoint: median survival time, higher = longer survival
How it was run: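 Antitumour effect was judged in vivo: survival in drug-treated mice, normalised to that of vehicle-dosed controls, gives the reported T/C.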

[1] = dose: 100.0 mg/kg/injection, schedule: Q04DX003 (ip), vehicle: Klucel (hydroxypropylcellulose) (HPC)
[2] = dose: 200.0 mg/kg/injection, schedule: Q04DX003 (ip), vehicle: Klucel (hydroxypropylcellulose) (HPC)
[3] = dose: 400.0 mg/kg/injection, schedule: Q04DX003 (ip), vehicle: Klucel (hydroxypropylcellulose) (HPC)
[4] = dose: 12.5 mg/kg/injection, schedule: Q04DX003 (ip), vehicle: Klucel (hydroxypropylcellulose) (HPC)
[5] = dose: 25.0 mg/kg/injection, schedule: Q04DX003 (ip), vehicle: Klucel (hydroxypropylcellulose) (HPC)
[6] = dose: 50.0 mg/kg/injection, schedule: Q04DX003 (ip), vehicle: Klucel (hydroxypropylcellulose) (HPC)
[7] = dose: 25.0 mg/kg/injection, schedule: Q01DX009 (ip), vehicle: saline with Tween-80
[8] = dose: 50.0 mg/kg/injection, schedule: Q01DX009 (ip), vehicle: saline with Tween-80
[9] = dose: 200.0 mg/kg/injection, schedule: Q01DX009 (ip), vehicle: saline with Tween-80
[10] = dose: 100.0 mg/kg/injection, schedule: Q01DX009 (ip), vehicle: saline with Tween-80
[11] = dose: 100.0 mg/kg/injection, schedule: Q04DX003 (ip), vehicle: saline with Tween-80
[12] = dose: 200.0 mg/kg/injection, schedule: Q04DX003 (ip), vehicle: saline with Tween-80
[13] = dose: 50.0 mg/kg/injection, schedule: Q01DX001 (ip), vehicle: saline

`CN(C)c1ccc(C(C[N+](=O)[O-])(c2ccc(N(C)C)cc2)c2ccc(N(C)C)cc2)cc1` was tested, and the T/C [1] was 100 % of control, the T/C [2] was 90 % of control and the T/C [3] was 100 % of control.

`CN(C(=O)c1ccccc1)N(C)C(=O)c1ccccc1` was tested, and the T/C [4] was 90 % of control, the T/C [5] was 109 % of control and the T/C [6] was 100 % of control.

For `O=C(c1ccccc1)C12CC3CC(CC(C3)C1)C2`, the T/C (dose: 6.25 mg/kg/injection, schedule: Q01DX009 (ip), vehicle: saline with Tween-80) was 90 % of control and 98 % of control, the T/C (dose: 12.5 mg/kg/injection, schedule: Q01DX009 (ip), vehicle: saline with Tween-80) was 90 % of control and the T/C [7] was 90 % of control and 99 % of control. The T/C [8] was 97 % of control and the T/C [9] was 107 % of control.

`CCCC(=O)NO` was tested, and the T/C (dose: 100.0 mg/kg/injection, schedule: Q01DX009 (ip), vehicle: saline sonified) was 100 % of control, the T/C (dose: 200.0 mg/kg/injection, schedule: Q01DX009 (ip), vehicle: saline sonified) was 100 % of control and the T/C (dose: 400.0 mg/kg/injection, schedule: Q01DX009 (ip), vehicle: saline sonified) was 100 % of control.

With `C=CCCCCCCCCC(=O)NCCN1CCOCC1` the T/C [8] was 104 % of control and the T/C [10] was 100 % of control.

For `NC(=O)N/N=C/c1cccs1`, the T/C [7] was 97 % of control and the T/C [8] was 104 % of control.

For `ClCCN(CCCl)CCCN1c2ccccc2Sc2ccc(Cl)cc21`, the T/C (dose: 3.12 mg/kg/injection, schedule: Q04DX003 (ip), vehicle: saline) was 97 % of control, the T/C (dose: 6.25 mg/kg/injection, schedule: Q04DX003 (ip), vehicle: saline with Tween-80) was 154 % of control and the T/C (dose: 6.25 mg/kg/injection, schedule: Q04DX003 (ip), vehicle: saline) was 97 % of control. For the same compound, the T/C (dose: 12.5 mg/kg/injection, schedule: Q04DX003 (ip), vehicle: saline) was 94 % of control.

In the case of `COC(=O)c1[nH]c(=O)[nH]c(=O)c1F`, the T/C (dose: 25.0 mg/kg/injection, schedule: Q04DX003 (ip), vehicle: saline with Tween-80) is reported as 113 % of control, the T/C [11] is reported as 122 % of control and the T/C [12] is reported as 90 % of control.

In the case of `O=c1[nH]n(-c2ccccc2)c(=O)cc1Cl`, the T/C [8] is reported as 95 % of control, the T/C [10] is reported as 87 % of control and the T/C [9] is reported as 90 % of control.

In the case of `CC1(CCNC2CCCCC2)Oc2ccccc2O1`, the T/C (dose: 50.0 mg/kg/injection, schedule: Q04DX002 (ip), vehicle: Klucel (hydroxypropylcellulose) (HPC)) is reported as 99 % of control and the T/C (dose: 100.0 mg/kg/injection, schedule: Q04DX002 (ip), vehicle: Klucel (hydroxypropylcellulose) (HPC)) is reported as 101 % of control.

In the case of `O=C(O)CCSc1nc2ccccc2s1`, the T/C [6] is reported as 100 % of control, the T/C [1] is reported as 100 % of control and the T/C [2] is reported as 113 % of control.

For `CCOC(=O)CNCc1cccc(Br)c1`, the T/C (dose: 50.0 mg/kg/injection, schedule: Q01DX005 (ip), vehicle: saline) was 104 % of control, the T/C (dose: 100.0 mg/kg/injection, schedule: Q01DX005 (ip), vehicle: saline) was 106 % of control and the T/C (dose: 200.0 mg/kg/injection, schedule: Q01DX005 (ip), vehicle: saline) was 98 % of control. The T/C (dose: 400.0 mg/kg/injection, schedule: Q01DX005 (ip), vehicle: saline) was 104 % of control.

With `Nc1ccc(CCc2ccc(Cl)cc2S(=O)(=O)F)c(Cl)c1` the T/C (dose: 100.0 mg/kg/injection, schedule: Q01DX009 (ip), vehicle: saline) was 95 % of control and the T/C (dose: 200.0 mg/kg/injection, schedule: Q01DX009 (ip), vehicle: saline) was 91 % of control.

`Cc1ccc(NCC(O)CN2CCOCC2)cc1` (stereo not given) was tested, and the T/C [1] was 108 % of control.

`CCCCCCCCCCCCCCSCCSCCSCCCCCCCCCCCCCC` was tested, and the T/C (dose: 25.0 mg/kg/injection, schedule: Q01DX001 (ip), vehicle: saline sonified) was 86 % of control and the T/C (dose: 100.0 mg/kg/injection, schedule: Q01DX001 (ip), vehicle: saline sonified) was 86 % of control.

With `COc1cc2cc3c4cc5c(cc4cc[n+]3c(C)c2cc1OC)OCO5` (tested in a mixture with another compound) the T/C (dose: 1.46 mg/kg/injection, schedule: Q04DX003 (ip), vehicle: saline) was 117 % of control, the T/C (dose: 16.5 mg/kg/injection, schedule: Q04DX003 (ip), vehicle: saline) was 150 % of control and the T/C (dose: 25.0 mg/kg/injection, schedule: Q04DX003 (ip), vehicle: saline) was 156 % of control and 159 % of control. The T/C (dose: 44.0 mg/kg/injection, schedule: Q04DX003 (ip), vehicle: saline) was 168 % of control, the T/C (dose: 50.0 mg/kg/injection, schedule: Q04DX003 (ip), vehicle: saline) was 160 % of control and the T/C (dose: 66.0 mg/kg/injection, schedule: Q04DX003 (ip), vehicle: saline) was 177 % of control. For the same compound, the T/C (dose: 100.0 mg/kg/injection, schedule: Q04DX003 (ip), vehicle: saline) was 163 % of control and 182 % of control.

For `N=C(N)SCc1ccccc1`, the T/C [13] was 98 % of control.

For `C[n+]1c(/C=C\C=C\N2CCCCC2)sc2ccccc21`, the T/C (dose: 0.16 mg/kg/injection, schedule: Q01DX009 (ip), vehicle: Klucel (hydroxypropylcellulose) (HPC)) was 114 % of control, the T/C (dose: 0.31 mg/kg/injection, schedule: Q01DX009 (ip), vehicle: Klucel (hydroxypropylcellulose) (HPC)) was 108 % of control and the T/C (dose: 0.63 mg/kg/injection, schedule: Q01DX009 (ip), vehicle: Klucel (hydroxypropylcellulose) (HPC)) was 119 % of control.

With `CCN(CC)Cc1c(C)[nH]c2c(OC)cccc2c1=O` the T/C (dose: 6.25 mg/kg/injection, schedule: Q01DX009 (ip), vehicle: water) was 97 % of control, the T/C (dose: 6.25 mg/kg/injection, schedule: Q04DX003 (ip), vehicle: water) was 98 % of control and the T/C (dose: 12.5 mg/kg/injection, schedule: Q01DX009 (ip), vehicle: water) was 99 % of control. For the same compound, the T/C (dose: 12.5 mg/kg/injection, schedule: Q04DX003 (ip), vehicle: water) was 91 % of control, the T/C (dose: 25.0 mg/kg/injection, schedule: Q01DX009 (ip), vehicle: water) was 106 % of control and the T/C (dose: 25.0 mg/kg/injection, schedule: Q04DX003 (ip), vehicle: water) was 105 % of control. The T/C (dose: 50.0 mg/kg/injection, schedule: Q01DX009 (ip), vehicle: water) was 97 % of control, the T/C (dose: 50.0 mg/kg/injection, schedule: Q04DX003 (ip), vehicle: water) was 100 % of control and the T/C (dose: 100.0 mg/kg/injection, schedule: Q01DX009 (ip), vehicle: water) was 108 % of control. For the same compound, the T/C (dose: 100.0 mg/kg/injection, schedule: Q04DX003 (ip), vehicle: water) was 105 % of control.

For `CN(C)CC(=O)Nc1nc(-c2ccc(Cl)cc2)cs1`, the T/C (dose: 50.0 mg/kg/injection, schedule: Q01DX005 (ip), vehicle: saline with Tween-80) was 101 % of control, the T/C (dose: 100.0 mg/kg/injection, schedule: Q01DX005 (ip), vehicle: saline with Tween-80) was 92 % of control and the T/C (dose: 200.0 mg/kg/injection, schedule: Q01DX005 (ip), vehicle: saline with Tween-80) was 99 % of control.

In the case of `Nc1cc[c]([Hg][Cl])cc1`, the T/C (dose: 1.5 mg/kg/injection, schedule: Q01DX001 (ip), vehicle: Klucel (hydroxypropylcellulose) (HPC)) is reported as 110 % of control, the T/C (dose: 3.0 mg/kg/injection, schedule: Q01DX001 (ip), vehicle: Klucel (hydroxypropylcellulose) (HPC)) is reported as 115 % of control and the T/C (dose: 6.0 mg/kg/injection, schedule: Q01DX001 (ip), vehicle: Klucel (hydroxypropylcellulose) (HPC)) is reported as 100 % of control and 104 % of control.

For `O=C1C(C(O)c2ccccc2)SC(c2ccccc2)N1c1ccccc1` (stereo not given), the T/C [4] was 96 % of control, the T/C [5] was 96 % of control and the T/C [6] was 96 % of control. For the same compound, the T/C [3] was 90 % of control.

In the case of `O=c1cc(Cl)c(=O)[nH][nH]1`, the T/C [13] is reported as 101 % of control, the T/C (dose: 100.0 mg/kg/injection, schedule: Q01DX001 (ip), vehicle: saline) is reported as 118 % of control and the T/C [11] is reported as 100 % of control. For the same compound, the T/C (dose: 200.0 mg/kg/injection, schedule: Q01DX001 (ip), vehicle: saline) was 98 % of control, the T/C [12] was 91 % of control and the T/C (dose: 400.0 mg/kg/injection, schedule: Q04DX003 (ip), vehicle: saline with Tween-80) was 91 % of control.

In the case of `COP(=O)(O)/C(C)=N/NS(=O)(=O)c1ccc(C)cc1`, the T/C (dose: 25.0 mg/kg/injection, schedule: Q01DX009 (ip), vehicle: other) is reported as 100 % of control, the T/C (dose: 50.0 mg/kg/injection, schedule: Q01DX009 (ip), vehicle: other) is reported as 103 % of control and the T/C (dose: 100.0 mg/kg/injection, schedule: Q01DX009 (ip), vehicle: other) is reported as 100 % of control. The T/C (dose: 200.0 mg/kg/injection, schedule: Q01DX009 (ip), vehicle: other) was 100 % of control and the T/C (dose: 400.0 mg/kg/injection, schedule: Q01DX009 (ip), vehicle: other) was 102 % of control.

With `CCC(CO)NC(=O)/C=C/c1ccc(Cl)cc1` (stereo not given) the T/C [9] was 91 % of control.
